Consider five molecules from paper PMC10222839, “Development of Novel Small-Molecule Activators of Pyruvate Kinase Muscle Isozyme 2, PKM2, to Reduce Photoreceptor Apoptosis” (Pharmaceuticals, 2023).

Values after ≈ are worked out from the molar mass of the structure shown.

T2 sequence (P52480 whole entry): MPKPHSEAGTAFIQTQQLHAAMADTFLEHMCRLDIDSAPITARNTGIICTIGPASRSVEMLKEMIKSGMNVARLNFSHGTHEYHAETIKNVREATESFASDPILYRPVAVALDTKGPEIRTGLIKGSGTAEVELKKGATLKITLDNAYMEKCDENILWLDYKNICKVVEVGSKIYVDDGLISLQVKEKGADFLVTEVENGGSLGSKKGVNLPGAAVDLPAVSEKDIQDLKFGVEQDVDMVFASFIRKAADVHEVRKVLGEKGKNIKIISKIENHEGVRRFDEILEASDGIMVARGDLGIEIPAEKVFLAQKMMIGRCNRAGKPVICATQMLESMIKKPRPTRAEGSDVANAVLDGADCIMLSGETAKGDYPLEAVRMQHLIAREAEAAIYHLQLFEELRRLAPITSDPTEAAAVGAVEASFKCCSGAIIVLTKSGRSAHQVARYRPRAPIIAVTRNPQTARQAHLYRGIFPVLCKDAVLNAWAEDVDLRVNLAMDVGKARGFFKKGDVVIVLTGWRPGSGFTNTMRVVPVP

One data set deals with T1, human recombinant PKM2 (Homo sapiens, UniProt P14618).
T1 construct: purchased Sigma SAE0021
T1 sequence (P14618 whole entry): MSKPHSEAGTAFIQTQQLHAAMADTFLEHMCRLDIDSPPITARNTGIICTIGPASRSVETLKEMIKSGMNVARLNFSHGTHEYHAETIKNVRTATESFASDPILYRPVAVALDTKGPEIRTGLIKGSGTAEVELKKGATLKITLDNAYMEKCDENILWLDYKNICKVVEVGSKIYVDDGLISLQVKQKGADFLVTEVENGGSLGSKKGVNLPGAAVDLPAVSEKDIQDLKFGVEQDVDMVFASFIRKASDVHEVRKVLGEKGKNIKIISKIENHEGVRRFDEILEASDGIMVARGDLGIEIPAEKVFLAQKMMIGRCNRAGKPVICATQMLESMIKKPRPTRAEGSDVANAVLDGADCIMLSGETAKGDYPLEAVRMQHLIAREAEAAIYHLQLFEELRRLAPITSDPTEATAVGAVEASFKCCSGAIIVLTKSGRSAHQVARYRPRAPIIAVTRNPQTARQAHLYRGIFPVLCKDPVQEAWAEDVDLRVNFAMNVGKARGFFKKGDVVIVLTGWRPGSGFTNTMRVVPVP
Nature of the data set: Pyruvate kinase enzyme-coupled (LDH/NADH) assay with recombinant PKM2. Type of data set: biochemical. The following applies: recombinant human PKM2, n = 3, best-fit value ± std. error. The protocol: (§1) Recombinant Enzyme. An enzyme-coupled assay that measures the depletion of NADH via absorbance at 340 nm and uses lactate dehydrogenase (LDH) was employed to determine the activity of pyruvate kinase (PK). To determine the AC50 (concentration of activator necessary to achieve half-maximal activation) of the different small molecules with PKM2, assays were conducted in a 96-well format using 200 μL/well assay volume with 10 nM human recombinant PKM2 (Sigma, St. Louis, MO, USA, Cat No. SAE0021) or PKM1 (Sigma, […], Cat No. SRP0415), differing concentrations of activator, 0.5 mM PEP, 1 mM ADP, 0.2 mM NADH, and 8 U of LDH in a buffer of 50 mM Tris-HCl (pH 7.4), 100 mM KCl, and 5 mM MgCl2 as previously described. A SPECTROstar Omega plate reader (BMG LABTECH Inc., Cary, NC, USA) monitored absorbance at 340 nm. The MARS software suite was utilized to determine initial velocities. Data were normalized to DMSO (dimethyl sulfoxide)-treated enzyme activity, as previously described.
In the case of `Cc1cccc(Cn2ncc3c4cc(F)c(CNCCO)cc4n(C)c3c2=O)n1` [Compound 17], the AC50 is 0.058 ± 0.005 µM.
Same read-out and setting: in the case of `CSc1ccc2c3cnn(Cc4cccc(N)c4)c(=O)c3n(C)c2c1` [Compound 4] it was 0.048 ± 0.01 µM.
Turning to `Cn1c2cc(CN3CCNCC3)c(F)cc2c2cnn(Cc3ccccc3F)c(=O)c21` [Compound 21], the AC50 was found to be 0.066 ± 0.01 µM.
Still for that read-out and setting: the figure for `Cc1ccc2c3cnn(Cc4ccccc4)c(=O)c3n(C)c2c1` [Compound 1] is 0.023 ± 0.004 µM; for `Cc1cccc(Cn2ncc3c4cc(F)c(CN(C)C)cc4n(C)c3c2=O)n1` [Compound 19] it is 0.083 ± 0.009 µM.

The same data set, now with this note: recombinant human PKM2, n = 3, normalized to DMSO-treated enzyme; read-out: Recombinant PKM2 Max Activation.
For the molecule `Cc1cccc(Cn2ncc3c4cc(F)c(CNCCO)cc4n(C)c3c2=O)n1` [Compound 17], the Emax was found to be 213 ± 6%.
Turning to `CSc1ccc2c3cnn(Cc4cccc(N)c4)c(=O)c3n(C)c2c1` [Compound 4], the Emax is 216 ± 12%.
Still for that read-out and setting: the figure for `Cn1c2cc(CN3CCNCC3)c(F)cc2c2cnn(Cc3ccccc3F)c(=O)c21` [Compound 21] is 339 ± 16%.
Still for that read-out and setting: in the case of `Cc1ccc2c3cnn(Cc4ccccc4)c(=O)c3n(C)c2c1` [Compound 1] it was 224 ± 9%.
In the case of `Cc1cccc(Cn2ncc3c4cc(F)c(CN(C)C)cc4n(C)c3c2=O)n1` [Compound 19], the Emax amounted to 266 ± 9%.

The next data set addresses T2, pyruvate kinase (PK) activity in 661W cells (Mus musculus, UniProt P52480).
T2 construct: endogenous in cells; host or cells: 661W photoreceptor-like cells
Nature of the data set: PK activity in 661W cell lysates after 2 h incubation with activator. It is filed as cell-based. The conditions noted are these: n = 3. The protocol:
The potency and efficacy of each compound, 1 through 5, was assessed with recombinant human PKM2 using an enzyme-coupled assay that uses lactate dehydrogenase and measures the reduction in NADH via absorbance at 340 nm. […] To assess the ability of this pyridazinoindolone series of compounds to cross cellular membranes and increase PK activity, we utilized 661W cells, which are immortalized photoreceptor-like cells that express cone markers.
Cell culture. Next, 661W cells were incubated with either DMSO or different concentrations of small-molecule PKM2 activator for 2 h, lysed and homogenized in RIPA Lysis and Extraction Buffer (Thermo Fisher, Waltham, MA, USA, Cat No. 89900) with protease inhibitors (Complete-Mini, Roche Diagnostics, Indianapolis, IN, USA), and centrifuged at 10,000 rpm for 10 min to remove cellular debris. The supernatant (4–8 μL) was then used to assess the pyruvate kinase activity as described above. The total protein content was determined using the Pierce BCA protein assay kit (Thermo Fisher, Waltham, MA, USA, Cat No. 23225) with the Pierce™ Bovine Serum Albumin Standard Pre-Diluted Set (Thermo Fisher, Waltham, MA, USA, Cat No. 23208) and used to normalize activity as described previously.
`Cc1cccc(Cn2ncc3c4cc(F)c(CNCCO)cc4n(C)c3c2=O)n1` [Compound 17] gave an AC50 of 1.62 ± 0.428 µM.
Still for that read-out and setting: the figure for `CSc1ccc2c3cnn(Cc4cccc(N)c4)c(=O)c3n(C)c2c1` [Compound 4] is 0.066 ± 0.019 µM; for `Cn1c2cc(CN3CCNCC3)c(F)cc2c2cnn(Cc3ccccc3F)c(=O)c21` [Compound 21] it is 0.072 ± 0.024 µM.
The molecule `Cc1ccc2c3cnn(Cc4ccccc4)c(=O)c3n(C)c2c1` [Compound 1] returned an AC50 of 0.175 ± 0.064 µM.
In turn, `Cc1cccc(Cn2ncc3c4cc(F)c(CN(C)C)cc4n(C)c3c2=O)n1` [Compound 19] gave an AC50 of 0.222 ± 0.081 µM.

The same data set, now with this note: n = 3, read-out: 661W Cells Max Activation.
Regarding `Cc1cccc(Cn2ncc3c4cc(F)c(CNCCO)cc4n(C)c3c2=O)n1` [Compound 17], the Emax is 430 ± 33%.
For `CSc1ccc2c3cnn(Cc4cccc(N)c4)c(=O)c3n(C)c2c1` [Compound 4], the Emax came to 256 ± 13%.
On the same count and under the same terms, in the case of `Cn1c2cc(CN3CCNCC3)c(F)cc2c2cnn(Cc3ccccc3F)c(=O)c21` [Compound 21] it was 299 ± 18%; in that of `Cc1ccc2c3cnn(Cc4ccccc4)c(=O)c3n(C)c2c1` [Compound 1], 219 ± 16%; in that of `Cc1cccc(Cn2ncc3c4cc(F)c(CN(C)C)cc4n(C)c3c2=O)n1` [Compound 19], 297 ± 22%.

In a further data set the target is T3, pyruvate kinase (PK) activity in rat retina (Rattus norvegicus, UniProt P11980).
T3 construct: the retina from each rat eye was dissected from the RPE-choroid, homogenized, and lysed; from tissue; host or cells: retina of adult Brown-Norway rats
T3 sequence (P11980 1-531 isoform P11980-2): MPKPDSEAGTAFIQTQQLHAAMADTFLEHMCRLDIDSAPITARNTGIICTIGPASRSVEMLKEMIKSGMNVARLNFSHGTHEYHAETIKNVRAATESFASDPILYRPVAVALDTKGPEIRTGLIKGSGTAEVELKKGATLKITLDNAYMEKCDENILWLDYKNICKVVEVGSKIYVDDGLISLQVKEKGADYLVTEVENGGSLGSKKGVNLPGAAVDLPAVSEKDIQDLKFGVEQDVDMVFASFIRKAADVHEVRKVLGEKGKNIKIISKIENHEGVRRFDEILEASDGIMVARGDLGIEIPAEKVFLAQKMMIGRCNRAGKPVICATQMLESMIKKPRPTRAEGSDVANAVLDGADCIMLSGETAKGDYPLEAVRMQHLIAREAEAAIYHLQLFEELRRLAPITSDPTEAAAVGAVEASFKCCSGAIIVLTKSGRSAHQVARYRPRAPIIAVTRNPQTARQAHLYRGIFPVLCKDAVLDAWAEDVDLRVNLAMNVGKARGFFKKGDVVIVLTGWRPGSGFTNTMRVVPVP
As to the kind of experiment: PK activity in rat retina after intravitreal injection. Type of data set: in vivo. The conditions noted are these: final vitreous concentration 1 μM, intravitreal injection in rats, 4 h (Figure 6a). Here is the method:
The intravitreal injection of medications has revolutionized how numerous retinal diseases are treated and are ever-increasing in ophthalmic clinical practice. Therefore, to assess the ability of these small molecules to activate PK in vivo in the rat retina, we utilized this well-accepted drug delivery method. Two microliters of each respective compound at 850 μM or DMSO were intravitreally injected into rat eyes. The vitreous volume of the rat eye was assumed to be 15 μL, giving a final intravitreal concentration of approximately 100 μM for each compound after injection. Retinas were harvested four hours after injection, lysed, and assayed for PK activity as previously described. The eyes treated with DMSO served as the control upon which PK activation was based.
(§2) Two microliters of each respective compound at 8.5 μM (final vitreous concentration of 1 μM) or DMSO was intravitreally injected into rat eyes, and the PK activity was assessed four hours later.
Animals. Intravitreal injections of various small-molecule PKM2 activators or vehicle (DMSO) were performed in Brown-Norway adult rats. The rats were anesthetized with ketamine (90 mg/mL) and xylazine (10 mg/mL) and their pupils dilated with topical phenylephrine (2.5%) and tropicamide (1%) as described previously. A sclerotomy was created with a 25-gauge microvitreoretinal blade (Walcott Rx Products, Ocean View, NJ, USA) just posterior to the limbus. A blunt 35-gauge cannula was inserted through this sclerotomy into the vitreous cavity to deliver 2 μL of different concentrations of small-molecule activator or DMSO. This injection volume produces minimal reflux with adequate reproducibility. Fifteen microliters of vitreous volume was assumed in rats to calculate the intravitreal concentrations of the compound after injection. As we have previously described, left eyes were treated with small-molecular activator, while right eyes were treated with DMSO, which served as the control upon which pyruvate kinase activation was based. Four hours later, the retina from each rat eye was dissected from the RPE-choroid, homogenized, and lysed in RIPA Lysis and Extraction Buffer with protease inhibitors. The pyruvate kinase (PK) activity assay, as described above, was performed using 4 to 8 microliters of rat retinal lysate, similar to what we and others have previously described. Analogous to the cell culture assays, the total protein of the lysate was used to normalize pyruvate kinase activity.
For the molecule `Cn1c2cc(CN3CCNCC3)c(F)cc2c2cnn(Cc3ccccc3F)c(=O)c21` [Compound 21], the “PK activation in rat retina compared with ML-265” value is “approximately a third of the retinal PK activation as that achieved with ML-265”.
As for `Cc1cccc(Cn2ncc3c4cc(F)c(CN(C)C)cc4n(C)c3c2=O)n1` [Compound 19], the “PK activity increase, less than that observed with ML-265” value was 20–30%.

Tested on in the next data set: not listed separately
As to the kind of experiment: Aqueous solubility (Eurofins Panlabs, HPLC-UV/Vis). It is filed as physicochemical. The following applies: aqueous buffer, kinetic from dmso stock; PBS, pH 7.4, 24 h, room temperature (Table 1). The protocol:
(§3) In brief, each compound was tested at a concentration of 200 μM in PBS, pH 7.4, and room temperature. […] The area of the principal peak in a calibration standard for each compound (200 μM) in organic solvent (60/40 v/v% methanol: water) was compared to the area of the corresponding peak in the PBS sample [42]. Compounds 16–21 underwent solubility testing at Analiza (Cleveland, OH, USA), a contract research organization. Five hundred microliters of PBS, pH 7.4 was added to each amount of compound provided. The samples were vortexed briefly and then placed on a rotary shaker at 200 RPM for 24 h at ambient temperature. Thereafter, the samples were vacuum filtered through a 0.45-micron membrane, and the filtrates were injected into a nitrogen detector for quantification. The nitrogen detector was calibrated using standards, and the filtrates were quantitated based on the calibration curve.
As for `CSc1ccc2c3cnn(Cc4cccc(N)c4)c(=O)c3n(C)c2c1` [Compound 4], the solubility at 24 h is less than 0.01 µM.
For `Cc1ccc2c3cnn(Cc4ccccc4)c(=O)c3n(C)c2c1` [Compound 1], the solubility at 24 h was less than 0.01 µM.

Tested on in another data set: not listed separately
As to the kind of experiment: Aqueous solubility (Analiza, nitrogen detector). It is filed as physicochemical. The conditions noted are these: aqueous buffer, thermodynamic from solid; PBS, pH 7.4, 24 h, ambient temperature (Table 3). Here is the method: as §3
`Cc1cccc(Cn2ncc3c4cc(F)c(CNCCO)cc4n(C)c3c2=O)n1` [Compound 17] displayed a solubility at 24 h of 1120 µM (≈ 442 µg/mL).
On to `Cn1c2cc(CN3CCNCC3)c(F)cc2c2cnn(Cc3ccccc3F)c(=O)c21` [Compound 21], for which the concentration in solution (solubility at 24 h) came to 334 µM (≈ 141 µg/mL).

The next data set deals with T4, recombinant PKM1 (Homo sapiens, UniProt P14618).
T4 construct: purchased Sigma SRP0415
T4 sequence (P14618 1-531 isoform P14618-2): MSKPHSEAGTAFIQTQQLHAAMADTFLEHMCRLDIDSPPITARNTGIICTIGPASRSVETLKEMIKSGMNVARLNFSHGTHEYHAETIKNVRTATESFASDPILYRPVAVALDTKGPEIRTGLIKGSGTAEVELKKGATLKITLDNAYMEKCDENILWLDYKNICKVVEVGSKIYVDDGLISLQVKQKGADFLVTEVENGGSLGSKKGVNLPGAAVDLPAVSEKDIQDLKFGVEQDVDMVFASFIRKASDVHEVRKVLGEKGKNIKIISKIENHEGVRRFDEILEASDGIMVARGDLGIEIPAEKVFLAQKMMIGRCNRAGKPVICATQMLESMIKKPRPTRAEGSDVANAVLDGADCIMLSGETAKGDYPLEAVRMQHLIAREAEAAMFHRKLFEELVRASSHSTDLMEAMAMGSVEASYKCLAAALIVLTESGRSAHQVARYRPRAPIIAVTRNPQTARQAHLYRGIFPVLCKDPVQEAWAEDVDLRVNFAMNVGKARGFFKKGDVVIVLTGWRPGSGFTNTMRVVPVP
As to the kind of experiment: Pyruvate kinase enzyme-coupled assay with recombinant PKM1. It is filed as biochemical. The following applies: increasing concentrations (Figure 6b). Here is the method: as §2, §1
For the molecule `Cc1cccc(Cn2ncc3c4cc(F)c(CN(C)C)cc4n(C)c3c2=O)n1` [Compound 19], the “activation of recombinant PKM1” value was “did not activate”.

Broadly, the AC50 is the midpoint of the concentration-response curve, whichever way the signal moves. In general, solubility refers to the dissolved amount per volume that the medium holds. Low readings indicate a poorly soluble substance, high ones a readily soluble substance.
